# ChEMBL document CHEMBL3272131, “Molecular connectivity. 6. Examination of the parabolic relationship between molecular connectivity and biological activity” (J Med Chem, 1976)
# Columns and labels:
# [1] = Drug absorption in intestine (unknown origin) assessed as tissue-bound transfer; assay type: ADME, tissue-based
# [2] = Drug absorption in intestine (unknown origin) assessed as serosal transfer; assay type: ADME, tissue-based
# [3] = Drug absorption in intestine (unknown origin) assessed as mucosal loss; assay type: ADME, tissue-based
# Rattus norvegicus = organism: Rattus norvegicus; assay: Induction of hypnotic activity in rat; assay type: functional
# [4] = system: Mycobacterium tuberculosis; assay: Antimicrobial activity against Mycobacterium tuberculosis; assay type: functional
# Clostridium perfringens = assay: Antimicrobial activity against Clostridium welchii; assay type: functional
# Staphylococcus aureus = assay: Antimicrobial activity against Staphylococcus aureus; assay type: functional
# Pseudomonas aeruginosa = assay: Antimicrobial activity against Pseudomonas aeruginosa; assay type: functional
# Mus musculus = assay: Induction of anesthetic activity in mouse; assay type: functional
# Oryctolagus cuniculus = organism: Oryctolagus cuniculus; assay: Induction of hypnotic activity in rabbit; assay type: functional
# [5] = Toxicity in sheep RBC assessed as hemolysis; assay type: cell-based, Ovis aries; conditions: erythrocyte
compound,measurement,setting,value
CCCOC(N)=O,log%Abs,[1],-0.04
same,log%Abs,[2],0.71
same,log%Abs,[3],0.78
C=CCC1(CC)C(=O)NC(=O)NC1=O [ETALLOBARBITAL],-log(1/MED),Rattus norvegicus,3.28
CCCCCCCCOc1ccc(N)cc1,-log(1/MIC),[4],3.44
CCCCCCCCCCCCCCCCC[N+](C)(C)Cc1ccccc1,-log(1/MIC),Clostridium perfringens,4.7
same,-log(1/MKC),Clostridium perfringens,4.7
same,-log(1/MIC),Staphylococcus aureus,5.18
same,-log(1/MIC),Pseudomonas aeruginosa,3.57
same,-log(1/MKC),Pseudomonas aeruginosa,3.06
CCCCOc1ccc(N)cn1,-log(1/MIC),[4],5.13
CCCCCCCCCCCCCCCC[N+](C)(C)Cc1ccc2c(c1)OCO2,-log(1/MIC),Staphylococcus aureus,4.2
C=CCC1(CCCC)C(=O)NC(=O)NC1=O,-log(1/MED),Rattus norvegicus,3.47
CCCCCCOC(N)=O,log%Abs,[1],-0.05
same,log%Abs,[2],0.35
same,log%Abs,[3],0.5
CCCCOc1ccncc1N,-log(1/MIC),[4],5.73
CCCCCCOc1ccc(N)cc1,-log(1/MIC),[4],5.8
NC(=O)OCc1ccccc1 [BENZYL CARBAMATE],log%Abs,[1],0.01
same,log%Abs,[2],0.59
same,log%Abs,[3],0.69
CCCCCCCCOC(N)=O,log%Abs,[1],-0.57
same,log%Abs,[2],-0.43
same,log%Abs,[3],-0.19
C=CCC1(CCC(C)C)C(=O)NC(=O)NC1=O,-log(1/MED),Rattus norvegicus,3.45
CCCCCCCCOc1ncccc1N,-log(1/MIC),[4],3.75
CC(C)CC1(CC(C)(C)C)C(=O)NC(=O)NC1=O,-log(1/AD50),Mus musculus,3.27
CCCCCCCOC(N)=O,log%Abs,[1],-0.28
same,log%Abs,[2],-0.17
same,log%Abs,[3],0.08
CCCCOC(N)=O,log%Abs,[1],0.1
same,log%Abs,[2],0.82
same,log%Abs,[3],0.9
CCCCCCCCCCC[N+](C)(C)Cc1ccccc1,-log(1/MIC),Clostridium perfringens,4.06
same,-log(1/MKC),Clostridium perfringens,4.06
same,-log(1/MIC),Staphylococcus aureus,5.06
same,-log(1/MIC),Pseudomonas aeruginosa,3.06
same,-log(1/MKC),Pseudomonas aeruginosa,2.92
CCC1(CC(C)C)C(=O)NC(=O)NC1=O,-log(1/MED),Oryctolagus cuniculus,3.63
CCOc1ccc(N)cc1,-log(1/MIC),[4],4.44
CCC1(C(C)C(C)(C)C)C(=O)NC(=O)NC1=O (configuration not stated),-log(1/AD50),Mus musculus,3.15
C=CCC1(CC(C)C)C(=O)NC(=O)NC1=O [BUTALBITAL],-log(1/MED),Rattus norvegicus,3.63
CCCCCCCCCCCCCCCC[N+](C)(C)Cc1ccccc1 [CETALKONIUM],-log(1/MIC),Clostridium perfringens,5.16
same,-log(1/MKC),Clostridium perfringens,5.16
same,-log(1/MIC),Staphylococcus aureus,5.56
same,-log(1/MIC),Pseudomonas aeruginosa,3.68
same,-log(1/MKC),Pseudomonas aeruginosa,3.3
same,-log(1/HC50),[5],4.79
C=CCC1(C(C)C)C(=O)NC(=O)NC1=O [APROBARBITAL],-log(1/MED),Rattus norvegicus,3.6
CCCCC1(C(C)C(C)(C)C)C(=O)NC(=O)NC1=O (configuration not stated),-log(1/AD50),Mus musculus,3.36
CCOC(N)=O [URETHANE],log%Abs,[1],-0.22
same,log%Abs,[2],0.53
same,log%Abs,[3],0.6
CCCCCCOc1ccncc1N,-log(1/MIC),[4],5.8
COC(N)=O [METHYL CARBAMATE],log%Abs,[1],-0.38
same,log%Abs,[2],0.45
same,log%Abs,[3],0.52
C=CCC1(C(C)C(C)(C)C)C(=O)NC(=O)NC1=O (configuration not stated),-log(1/AD50),Mus musculus,3.39
C=CCC1(C(C)CC)C(=O)NC(=O)NC1=O (configuration not stated) [TALBUTAL],-log(1/MED),Rattus norvegicus,3.78
CCCCCCCCCC[N+](C)(C)Cc1ccc(Cl)cc1,-log(1/MIC),Staphylococcus aureus,3.6
CCCCCCCCCCCCCCCCCC[N+](C)(C)Cc1ccc(Cl)cc1Cl,-log(1/MIC),Staphylococcus aureus,3.3
CCCCC1(CC(C)(C)C)C(=O)NC(=O)NC1=O,-log(1/AD50),Mus musculus,3.33
CCCCOc1ccc(N)cc1,-log(1/MIC),[4],5.42
CCCCCCCCCCOc1ncccc1N,-log(1/MIC),[4],3.19
CCCCCCCC[N+](C)(C)Cc1ccc(Cl)cc1,-log(1/MIC),Staphylococcus aureus,2.6
CCC(C)(C)OC(N)=O,log%Abs,[1],0.04
same,log%Abs,[2],0.68
same,log%Abs,[3],0.77
CCCC1(C(C)C)C(=O)NC(=O)NC1=O,-log(1/MED),Oryctolagus cuniculus,3.63
CCCC(C)(C)OC(N)=O,log%Abs,[1],-0.21
same,log%Abs,[2],0.09
same,log%Abs,[3],0.26
COc1ccc(N)cc1,-log(1/MIC),[4],3.39
CCCCCCCCCCCCCCCCCCC[N+](C)(C)Cc1ccccc1,-log(1/MIC),Clostridium perfringens,4.73
same,-log(1/MKC),Clostridium perfringens,4.73
same,-log(1/MIC),Staphylococcus aureus,4.91
same,-log(1/MIC),Pseudomonas aeruginosa,2.91
same,-log(1/MKC),Pseudomonas aeruginosa,2.52
CCCCCCCCCCCC[N+](C)(C)Cc1ccc2c(c1)OCO2,-log(1/MIC),Staphylococcus aureus,4
CCCCCCOc1ccc(N)cn1,-log(1/MIC),[4],5.49
CC(C)(C)CC1(C)C(=O)NC(=O)NC1=O,-log(1/AD50),Mus musculus,2.12
CCCCCCCCCCCCCC[N+](C)(C)Cc1ccccc1 [MIRISTALKONIUM ION],-log(1/MIC),Clostridium perfringens,5.12
same,-log(1/MKC),Clostridium perfringens,5.12
same,-log(1/MIC),Staphylococcus aureus,5.82
same,-log(1/MIC),Pseudomonas aeruginosa,3.65
same,-log(1/MKC),Pseudomonas aeruginosa,3.96
same,-log(1/HC50),[5],4.4
CC(C)(C)OC(N)=O,log%Abs,[1],0
same,log%Abs,[2],0.65
same,log%Abs,[3],0.73
CCC1(CCC(C)C)C(=O)NC(=O)NC1=O [AMOBARBITAL],-log(1/MED),Rattus norvegicus,3.59
CCCCC1(CCCC)C(=O)NC(=O)NC1=O,-log(1/MED),Rattus norvegicus,3.08
CCCCCCCCCCCC[N+](C)(C)Cc1ccccc1 [BENZODODECINIUM],-log(1/MIC),Clostridium perfringens,4.61
same,-log(1/MKC),Clostridium perfringens,4.61
same,-log(1/MIC),Staphylococcus aureus,5.61
same,-log(1/MIC),Pseudomonas aeruginosa,3.61
same,-log(1/MKC),Pseudomonas aeruginosa,3.45
same,-log(1/HC50),[5],3.82
CCOc1ncccc1N,-log(1/MIC),[4],3.54
CCCCCCCCCCCCCCC[N+](C)(C)Cc1ccccc1,-log(1/MIC),Clostridium perfringens,5.14
same,-log(1/MKC),Clostridium perfringens,5.14
same,-log(1/MIC),Staphylococcus aureus,5.84
same,-log(1/MIC),Pseudomonas aeruginosa,3.84
same,-log(1/MKC),Pseudomonas aeruginosa,3.74
C=CCC1(CCC)C(=O)NC(=O)NC1=O,-log(1/MED),Rattus norvegicus,3.47
CCCCOc1ccc(N)c2ccccc12,-log(1/MIC),[4],4.03
CCCC1(CCC(C)C)C(=O)NC(=O)NC1=O,-log(1/MED),Oryctolagus cuniculus,3.48
CCCC1(CCC)C(=O)NC(=O)NC1=O,-log(1/MED),Oryctolagus cuniculus,3.55
CC(C(C)(C)C)C1(C)C(=O)NC(=O)NC1=O (configuration not stated),-log(1/AD50),Mus musculus,2.64
CCCCCCCCCC[N+](C)(C)Cc1ccccc1,-log(1/MIC),Clostridium perfringens,3.57
same,-log(1/MKC),Clostridium perfringens,3.57
same,-log(1/MIC),Staphylococcus aureus,4.74
same,-log(1/MIC),Pseudomonas aeruginosa,2.74
same,-log(1/MKC),Pseudomonas aeruginosa,2.41
same,-log(1/HC50),[5],2.95
CCCC1(CC(C)(C)C)C(=O)NC(=O)NC1=O,-log(1/AD50),Mus musculus,3.04
CCC1(CC)C(=O)NC(=O)NC1=O [BARBITAL],-log(1/MED),Rattus norvegicus,2.91
CCCC1(C(C)C(C)(C)C)C(=O)NC(=O)NC1=O (configuration not stated),-log(1/AD50),Mus musculus,3.29
CCCCC1(C(C)C)C(=O)NC(=O)NC1=O,-log(1/MED),Rattus norvegicus,3.49
C=CCC1(CC=C)C(=O)NC(=O)NC1=O [ALLOBARBITAL],-log(1/MED),Rattus norvegicus,3.54
CCCCCOC(N)=O,log%Abs,[1],0.02
same,log%Abs,[2],0.57
same,log%Abs,[3],0.68
CCCCCOc1ncccc1N,-log(1/MIC),[4],5.76
CCC1(CC(C)(C)C)C(=O)NC(=O)NC1=O,-log(1/AD50),Mus musculus,2.91
CC(C)COC(N)=O,log%Abs,[1],0.04
same,log%Abs,[2],0.75
same,log%Abs,[3],0.83
CCCCCCCCCCCCCCCCCC[N+](C)(C)Cc1ccccc1,-log(1/MIC),Clostridium perfringens,4.71
same,-log(1/MKC),Clostridium perfringens,4.71
same,-log(1/MIC),Staphylococcus aureus,5.19
same,-log(1/MKC),Pseudomonas aeruginosa,2.63
same,-log(1/HC50),[5],4.52
CCC1(c2ccccc2)C(=O)NC(=O)NC1=O [PHENOBARBITAL],-log(1/MED),Oryctolagus cuniculus,3.46
CCCCC1(CC)C(=O)NC(=O)NC1=O [BUTETHAL],-log(1/MED),Rattus norvegicus,3.53
CCCCCCCC[N+](C)(C)Cc1ccccc1,-log(1/MIC),Clostridium perfringens,3
same,-log(1/MKC),Clostridium perfringens,2.69
same,-log(1/MIC),Staphylococcus aureus,3.69
same,-log(1/MKC),Pseudomonas aeruginosa,1.68
same,-log(1/HC50),[5],1.52
CCCOc1ncccc1N,-log(1/MIC),[4],4.79
CCCCCC1(CC(C)(C)C)C(=O)NC(=O)NC1=O,-log(1/AD50),Mus musculus,3.32
CCCCCOc1ccc(N)cc1,-log(1/MIC),[4],5.45
CCCCCCCCCCCCC[N+](C)(C)Cc1ccccc1 [BENZALKONIUM],-log(1/MIC),Clostridium perfringens,5.1
same,-log(1/MKC),Clostridium perfringens,5.1
same,-log(1/MIC),Staphylococcus aureus,5.8
same,-log(1/MIC),Pseudomonas aeruginosa,3.8
same,-log(1/MKC),Pseudomonas aeruginosa,3.85
COc1ncccc1N,-log(1/MIC),[4],2.59
CCCCCCCOc1ncccc1N,-log(1/MIC),[4],4.62
CC(C)COc1ncccc1N,-log(1/MIC),[4],4.52
CC(C)CCC1(CC(C)(C)C)C(=O)NC(=O)NC1=O,-log(1/AD50),Mus musculus,3.26
